We go through one compound from ChEMBL document CHEMBL4304783, “Discovery of a Novel Selective Dual Peroxisome Proliferator-Activated Receptor α/δ Agonist for the Treatment of Primary Biliary Cirrhosis” (ACS Med Chem Lett, 2019).

Data set [1] deals with T1, Peroxisome proliferator-activated receptor alpha (Homo sapiens, UniProt Q07869).
T1 sequence (Q07869 whole entry): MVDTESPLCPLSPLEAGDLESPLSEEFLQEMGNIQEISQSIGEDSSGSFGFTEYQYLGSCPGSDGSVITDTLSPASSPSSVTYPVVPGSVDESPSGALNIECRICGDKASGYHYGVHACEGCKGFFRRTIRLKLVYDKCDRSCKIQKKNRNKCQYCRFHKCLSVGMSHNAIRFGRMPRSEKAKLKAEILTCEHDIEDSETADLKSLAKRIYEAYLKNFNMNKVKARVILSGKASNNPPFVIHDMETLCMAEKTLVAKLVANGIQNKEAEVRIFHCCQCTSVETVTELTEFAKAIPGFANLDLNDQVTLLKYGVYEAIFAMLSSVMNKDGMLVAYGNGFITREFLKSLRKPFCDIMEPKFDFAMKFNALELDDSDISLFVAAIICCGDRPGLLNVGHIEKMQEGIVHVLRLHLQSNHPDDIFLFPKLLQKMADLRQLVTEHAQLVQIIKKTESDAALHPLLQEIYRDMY
Kind of data set: Agonist activity at PPARalpha (unknown origin) incubated for 3 to 16 hrs by pathhunter nuclear hormone receptor assay.

For data set [2], the target named is T2, Peroxisome proliferator-activated receptor delta (Homo sapiens, UniProt Q03181).
T2 sequence (Q03181 whole entry): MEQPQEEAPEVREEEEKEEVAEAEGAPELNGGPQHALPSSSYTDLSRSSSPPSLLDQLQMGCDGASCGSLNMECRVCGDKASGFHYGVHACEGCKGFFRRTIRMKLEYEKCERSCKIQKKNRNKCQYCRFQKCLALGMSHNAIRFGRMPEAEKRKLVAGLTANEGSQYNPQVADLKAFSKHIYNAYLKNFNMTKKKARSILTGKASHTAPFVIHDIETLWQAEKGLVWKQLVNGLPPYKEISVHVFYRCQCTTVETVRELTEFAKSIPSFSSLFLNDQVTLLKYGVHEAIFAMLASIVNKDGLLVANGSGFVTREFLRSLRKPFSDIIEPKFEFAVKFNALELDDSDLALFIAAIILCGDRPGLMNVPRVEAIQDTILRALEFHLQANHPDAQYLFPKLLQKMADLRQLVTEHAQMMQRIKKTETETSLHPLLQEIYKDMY
Kind of data set: Agonist activity at PPARbeta (unknown origin) incubated for 3 to 16 hrs by pathhunter nuclear hormone receptor assay.

In data set [3] the target is T3, Peroxisome proliferator-activated receptor alpha (Homo sapiens) (UniProt Q07869).
T3 sequence (whole entry): T1 sequence (Q07869 whole entry)
The data set can be described thus: Agonist activity at PPARalpha (unknown origin) incubated for 3 to 16 hrs by pathhunter nuclear hormone receptor assay relative to GW7647. Also on record: concentration or dose not given beside the values.

Data set [4] concerns the target T4, Peroxisome proliferator-activated receptor delta (Homo sapiens) (UniProt Q03181).
T4 sequence (whole entry): T2 sequence (Q03181 whole entry)
Kind of data set: Agonist activity at PPARbeta (unknown origin) incubated for 3 to 16 hrs by pathhunter nuclear hormone receptor assay relative to L-165,041.

Data set [5] in a line: Protein binding in rat plasma at 2 uM incubated for 4 hrs by LC-MS/MS analysis. It counts as ADME, cell-free.
Data set [6] can be described thus: Apparent permeability across basolateral to apical side in human Caco2 cells at 2 uM incubated for 120 mins by LC-MS/MS analysis. It counts as ADME, cell-based. The settings on record: Caco-2. (In general: Caco-2 cells form a polarised layer with tight junctions and transporters.)
A short description of data set [7]: Efflux ratio of apparent permeability across basolateral to apical over apical to basolateral side in human Caco2 cells at 2 uM incubated for 120 mins by LC-MS/MS analysis. It counts as ADME, cell-based. The settings on record: Caco-2.
Data set [8] concerns the target T5, Cytochrome P450 1A2 (Homo sapiens, UniProt P05177).
T5 sequence (P05177 whole entry): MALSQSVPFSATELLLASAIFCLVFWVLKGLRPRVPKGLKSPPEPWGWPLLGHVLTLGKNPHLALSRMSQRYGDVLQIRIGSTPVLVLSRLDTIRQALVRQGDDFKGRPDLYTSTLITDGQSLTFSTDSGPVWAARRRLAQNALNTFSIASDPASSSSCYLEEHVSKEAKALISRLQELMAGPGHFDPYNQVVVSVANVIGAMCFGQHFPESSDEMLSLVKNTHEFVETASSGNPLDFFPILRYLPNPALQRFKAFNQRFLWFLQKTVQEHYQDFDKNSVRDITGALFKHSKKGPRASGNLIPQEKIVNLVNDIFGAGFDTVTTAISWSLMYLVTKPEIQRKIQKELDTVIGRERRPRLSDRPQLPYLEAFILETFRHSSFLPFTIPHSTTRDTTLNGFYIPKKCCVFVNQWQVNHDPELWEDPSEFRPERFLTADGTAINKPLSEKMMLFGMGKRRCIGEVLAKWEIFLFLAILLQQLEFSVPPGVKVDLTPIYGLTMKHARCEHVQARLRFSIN
Kind of data set: Inhibition of CYP1A2 in human liver microsomes using phenacetin as substrate incubated for 10 mins followed by substrate addition further incubated for 10 mins by LC-MS/MS analysis. It counts as ADME. (Liver microsomes are a subcellular fraction often used to study metabolism.)

Data set [9] deals with Voltage-gated inwardly rectifying potassium channel KCNH2 (Homo sapiens, UniProt Q12809). Kind of data set: Inhibition of human ERG expressed in CHO-K1 cells by whole-cell patch clamp assay. It counts as cell-based. In general terms: In patch-clamp work, channel activity is measured electrically.
Data set [10] in a line: Volume of distribution at steady state in C57BL/6J mouse at 1 mg/kg, iv measured upto 24 hrs by LC-MS/MS analysis. It counts as ADME, organism-based. The settings on record: in vivo, read-out: Vdss.
A short description of data set [11]: Clearance in C57BL/6J mouse at 1 mg/kg, iv measured upto 24 hrs by LC-MS/MS analysis. It counts as ADME, organism-based. The settings on record: in vivo.
Data set [12] can be described thus: AUC (0 to last) in C57BL/6J mouse at 1 mg/kg, iv measured upto 24 hrs by LC-MS/MS analysis. It counts as ADME, organism-based. Also noted: dose 1 mg/kg, time 0 - last, route intravenous. The settings on record: in vivo.
Data set [13] is described as follows: AUC (0 to last) in C57BL/6J mouse at 10 mg/kg, po measured upto 24 hrs by LC-MS/MS analysis. It counts as ADME, organism-based. Also on record: dose 10 mg/kg, route oral, time 0 - last. The settings on record: in vivo.
The nature of data set [14]: Cmax in C57BL/6J mouse at 10 mg/kg, po measured upto 24 hrs by LC-MS/MS analysis. It counts as ADME, organism-based. Also noted: dose 10 mg/kg, route oral. The settings on record: in vivo.
A short description of data set [15]: Tmax in C57BL/6J mouse at 10 mg/kg, po measured upto 24 hrs by LC-MS/MS analysis. It counts as ADME, organism-based. The settings on record: in vivo.
Data set [16] can be described thus: Volume of distribution at steady state in Sprague-Dawley rat at 1 mg/kg, iv measured upto 24 hrs by LC-MS/MS analysis. It counts as ADME, organism-based. The settings on record: in vivo, read-out: Vdss.
Data set [17] in a line: Clearance in Sprague-Dawley rat at 1 mg/kg, iv measured upto 24 hrs by LC-MS/MS analysis. It counts as ADME, organism-based. The settings on record: in vivo.
The nature of data set [18]: Half life in Sprague-Dawley rat at 1 mg/kg, iv measured upto 24 hrs by LC-MS/MS analysis. It counts as ADME, organism-based. The settings on record: in vivo.
Data set [19] is described as follows: AUC (0 to last) in Sprague-Dawley rat at 10 mg/kg, po measured upto 24 hrs by LC-MS/MS analysis. It counts as ADME, organism-based. Also noted: dose 10 mg/kg, route oral, time 0 - last. The settings on record: in vivo.
Data set [20] in a line: Cmax in Sprague-Dawley rat at 10 mg/kg, po measured upto 24 hrs by LC-MS/MS analysis. It counts as ADME, organism-based. Also noted: dose 10 mg/kg, route oral. The settings on record: in vivo.
Data set [21] in a line: Tmax in Sprague-Dawley rat at 10 mg/kg, po measured upto 24 hrs by LC-MS/MS analysis. It counts as ADME, organism-based. The settings on record: in vivo.
Data set [22] deals with Rattus norvegicus. The data set can be described thus: Hepatoprotective activity in Sprague-Dawley rat assessed as reduction in ANIT-stimulated total bilirubin level at 3 mg/kg, ig administered for 8 days by biochemical analysis. It counts as functional, organism-based.
Data set [23] is described as follows: Oral bioavailability in C57BL/6J mouse at 10 mg/kg upto 24 hrs by LC-MS/MS analysis. The settings on record: in vivo.

The EC50 is the concentration needed to bring the measured effect to its halfway point. Usually fraction unbound stands for free concentration divided by total concentration. Usually Papp B→A stands for how fast a substance crosses the layer from the basolateral side. What is called efflux ratio is a quotient of directional permeabilities that is used to spot active efflux. One may read the IC50 as the concentration that inhibits the measured activity by half. For orientation: clearance means the volume of plasma or blood freed of the substance per unit of time. The term AUC(0-t) denotes exposure summed from dosing to a finite time, without extrapolation to infinity. By Cmax is commonly meant the peak of the concentration-time curve. In general, Tmax refers to the time at which the peak concentration occurs. What is called half-life is the time needed for the level to fall by half in the phase considered. Usually bioavailability stands for the share of a dose that reaches the circulation, judged against a reference dose that is usually intravenous.

The source made the active and inactive calls.

Chain of Voltage-gated inwardly rectifying potassium channel KCNH2 (Q12809 whole entry): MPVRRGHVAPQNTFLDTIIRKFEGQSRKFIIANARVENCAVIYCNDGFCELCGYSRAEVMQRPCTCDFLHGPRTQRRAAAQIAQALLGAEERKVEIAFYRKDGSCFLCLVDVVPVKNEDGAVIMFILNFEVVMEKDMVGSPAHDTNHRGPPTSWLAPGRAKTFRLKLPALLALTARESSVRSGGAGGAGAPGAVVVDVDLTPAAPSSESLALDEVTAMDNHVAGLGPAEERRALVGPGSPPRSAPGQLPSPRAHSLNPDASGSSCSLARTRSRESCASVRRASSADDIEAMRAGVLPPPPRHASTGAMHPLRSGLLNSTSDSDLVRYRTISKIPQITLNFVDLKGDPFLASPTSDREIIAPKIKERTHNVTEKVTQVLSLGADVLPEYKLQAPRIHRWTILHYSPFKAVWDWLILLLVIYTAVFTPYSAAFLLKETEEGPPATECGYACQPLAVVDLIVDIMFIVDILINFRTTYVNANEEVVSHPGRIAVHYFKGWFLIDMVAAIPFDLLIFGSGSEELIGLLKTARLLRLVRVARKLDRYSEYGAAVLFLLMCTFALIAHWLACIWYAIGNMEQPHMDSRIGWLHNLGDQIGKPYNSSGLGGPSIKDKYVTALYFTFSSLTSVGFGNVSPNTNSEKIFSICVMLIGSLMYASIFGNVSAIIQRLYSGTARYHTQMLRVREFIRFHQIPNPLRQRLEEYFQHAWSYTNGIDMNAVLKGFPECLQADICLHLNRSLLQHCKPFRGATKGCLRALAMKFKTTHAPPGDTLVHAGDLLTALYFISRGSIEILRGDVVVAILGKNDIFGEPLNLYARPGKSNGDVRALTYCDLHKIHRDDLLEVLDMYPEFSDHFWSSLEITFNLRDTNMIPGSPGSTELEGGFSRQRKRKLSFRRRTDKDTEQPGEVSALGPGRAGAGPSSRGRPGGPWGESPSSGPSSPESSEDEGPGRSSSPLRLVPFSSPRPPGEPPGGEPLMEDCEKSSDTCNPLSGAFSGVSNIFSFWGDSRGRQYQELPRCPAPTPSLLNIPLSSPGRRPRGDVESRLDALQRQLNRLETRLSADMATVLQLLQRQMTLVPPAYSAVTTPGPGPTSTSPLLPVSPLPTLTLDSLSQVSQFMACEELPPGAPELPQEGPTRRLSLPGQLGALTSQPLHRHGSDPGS

`Cc1cc(Cc2cc(-c3ccc(Br)cc3)on2)cc(C)c1OC(C)(C)C(=O)O`: the EC50 in [1] was found to be 8 nM; in [2] it was 5 nM. The Activity in data set [3] is 92%; in [4] it was 79%. Also, the fraction unbound at 4 h, 2 µM in data set [5] was less than 0.001. The Papp B→A at 2 h, 2 µM in data set [6] is 0.2 ×10⁻⁶ cm/s. Moreover, in [7], the efflux ratio at 2 h, 2 µM amounted to 0.4. Further, the IC50 in [8] was 10000 nM; in data set [9], greater than 30000 nM. The figures for the Vd in [10] and in [16] were 0.53 L/kg and 0.16 L/kg, respectively. The clearance in [11] amounted to 3.53 mL/min/kg; in data set [17], 0.35 mL/min/kg. For the same compound, the area under the curve AUC(0-t) at 24 h in data set [12] turned out to be 10.6 µM·h; in data set [13], 63.2 µM·h; in data set [19] it was 561 µM·h. The Cmax in [14] amounted to 52 µM; in data set [20], 65.3 µM. For the same compound, the Tmax in [15] is 0.33 h; in data set [21], 1.33 h. The half-life in [18] is 6 h. Besides, the outcome in data set [22] was Active. Further, in data set [23], the bioavailability was determined as 59.8%.
